pIC50, pKi: −log10 of the molar value. Activity calls are given as the source filed them. The calls are words filed in the database; no cut-off is given here.
Tests used:
[1] = molecular target: Neuromedin-B receptor (Homo sapiens) (UniProt P28336); test: Displacement of [125I]-(Tyr4)-bombesin from bombesin BB1 receptor (unknown origin) at 1 uM
[2] = molecular target: T1, Glutamate [NMDA] receptor (Homo sapiens) (UniProt Q05586+Q12879+Q13224+O15399+O60391+Q14957+Q8TCU5); test: Displacement of [3H]-MDL-105519 from glutamate NMDA receptor glycine binding site (unknown origin) at 1 uM
[3] = species on record: Homo sapiens; test: Displacement of [3H]-flunitrazepam from […] GABAA receptor (unknown origin) at 1 uM
[4] = molecular target: Histamine H3 receptor (Homo sapiens) (UniProt Q9Y5N1); test: Displacement of [3H]-R(-)-alpha-methylhistamine from histamine H3 receptor (unknown origin) at 1 uM
Chain of Histamine H3 receptor (Homo sapiens) (Q9Y5N1 whole entry): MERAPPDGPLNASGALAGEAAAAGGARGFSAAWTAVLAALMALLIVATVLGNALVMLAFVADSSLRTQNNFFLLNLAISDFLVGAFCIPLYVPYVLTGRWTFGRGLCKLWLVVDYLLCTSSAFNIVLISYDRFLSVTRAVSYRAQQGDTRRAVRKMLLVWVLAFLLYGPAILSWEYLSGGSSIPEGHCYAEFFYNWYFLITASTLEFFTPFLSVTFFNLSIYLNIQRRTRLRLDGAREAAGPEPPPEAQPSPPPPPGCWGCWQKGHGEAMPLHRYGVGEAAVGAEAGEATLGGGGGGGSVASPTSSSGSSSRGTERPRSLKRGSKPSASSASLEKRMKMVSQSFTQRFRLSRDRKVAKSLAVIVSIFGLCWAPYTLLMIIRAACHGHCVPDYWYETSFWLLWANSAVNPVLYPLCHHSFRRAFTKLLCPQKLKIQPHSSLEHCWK

[5] = tested on: Mus musculus; test: Toxicity in mouse assessed as diarrhea at 30 mg/kg, ip measured for 60 mins by Irwin test; assay type: organism-based; conditions: in vivo, 1 h
[6] = molecular target: Gastrin-releasing peptide receptor (Homo sapiens) (UniProt P30550); test: Displacement of [125I]-(Tyr4)-bombesin from bombesin BB2 receptor (unknown origin) at 1 uM
[7] = molecular target: B2 bradykinin receptor (Homo sapiens) (UniProt P30411); test: Displacement of [3H]-bradykinin from bradykinin B2 receptor (unknown origin) at 1 uM
Chain of B2 bradykinin receptor (Homo sapiens) (P30411 whole entry): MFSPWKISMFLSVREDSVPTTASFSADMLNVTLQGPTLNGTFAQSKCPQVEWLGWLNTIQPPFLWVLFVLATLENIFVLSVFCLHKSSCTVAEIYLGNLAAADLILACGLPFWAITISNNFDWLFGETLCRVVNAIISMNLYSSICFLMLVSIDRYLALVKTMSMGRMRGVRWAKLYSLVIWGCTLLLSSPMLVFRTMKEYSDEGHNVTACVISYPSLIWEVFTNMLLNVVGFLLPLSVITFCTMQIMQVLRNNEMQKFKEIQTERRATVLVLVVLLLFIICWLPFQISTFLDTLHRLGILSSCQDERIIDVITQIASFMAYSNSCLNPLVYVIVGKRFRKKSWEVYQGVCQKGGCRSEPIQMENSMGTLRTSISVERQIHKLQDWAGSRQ

[8] = species on record: Homo sapiens; test: Displacement of [3H]-muscimol from […] GABAA receptor (unknown origin) at 1 uM
[9] = molecular target: Adenosine receptor A1 (Homo sapiens) (UniProt P30542); test: Displacement of [3H]-DPCPX from adenosine A1 receptor (unknown origin) at 1 uM
Chain of Adenosine receptor A1 (Homo sapiens) (P30542 whole entry): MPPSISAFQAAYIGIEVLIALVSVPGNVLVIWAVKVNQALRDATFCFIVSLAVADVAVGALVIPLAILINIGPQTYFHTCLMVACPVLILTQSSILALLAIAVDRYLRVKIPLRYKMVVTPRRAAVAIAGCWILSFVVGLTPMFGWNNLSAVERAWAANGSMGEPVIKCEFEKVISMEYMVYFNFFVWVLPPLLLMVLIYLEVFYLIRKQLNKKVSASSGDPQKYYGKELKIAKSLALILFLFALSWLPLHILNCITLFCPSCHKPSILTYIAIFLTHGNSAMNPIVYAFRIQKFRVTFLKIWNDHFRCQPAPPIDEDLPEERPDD

[10] = molecular target: D(2) dopamine receptor (Homo sapiens) (UniProt P14416); test: Displacement of [3H]-sp iperone from dopamine D2 receptor (unknown origin) at 1 uM
Chain of D(2) dopamine receptor (Homo sapiens) (P14416 whole entry): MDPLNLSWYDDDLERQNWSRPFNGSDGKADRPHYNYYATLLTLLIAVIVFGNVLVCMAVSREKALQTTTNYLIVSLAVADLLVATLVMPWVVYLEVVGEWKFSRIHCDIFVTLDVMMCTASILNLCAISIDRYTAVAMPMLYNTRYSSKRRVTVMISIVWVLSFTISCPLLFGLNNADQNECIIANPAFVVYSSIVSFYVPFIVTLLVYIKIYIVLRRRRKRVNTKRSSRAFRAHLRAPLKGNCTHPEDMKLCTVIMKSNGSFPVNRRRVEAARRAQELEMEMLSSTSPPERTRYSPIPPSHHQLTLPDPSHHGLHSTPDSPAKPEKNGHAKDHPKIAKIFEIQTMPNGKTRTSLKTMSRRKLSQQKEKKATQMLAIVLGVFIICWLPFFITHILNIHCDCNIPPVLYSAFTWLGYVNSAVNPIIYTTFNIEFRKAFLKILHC

[11] = molecular target: T2, Histamine H2 receptor (Homo sapiens, UniProt P25021); test: Displacement of [125I]-aminopotentidine receptor from histamine H2 receptor (unknown origin) at 1 uM
T2 sequence (P25021 whole entry): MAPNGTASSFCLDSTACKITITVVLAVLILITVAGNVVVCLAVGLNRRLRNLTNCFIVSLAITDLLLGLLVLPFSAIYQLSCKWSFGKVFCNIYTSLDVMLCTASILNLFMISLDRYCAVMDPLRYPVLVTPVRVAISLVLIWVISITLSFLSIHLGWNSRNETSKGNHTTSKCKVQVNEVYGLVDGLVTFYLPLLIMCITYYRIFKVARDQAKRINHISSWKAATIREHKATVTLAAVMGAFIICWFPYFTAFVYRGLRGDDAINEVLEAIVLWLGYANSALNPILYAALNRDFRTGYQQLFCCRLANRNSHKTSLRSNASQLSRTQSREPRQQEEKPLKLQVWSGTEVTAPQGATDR

[12] = tested on: Mus musculus; test: Cognition enhancing effect in mouse assessed as reversal of scopolamine-induced amnesia at 30 mg/kg, ip; assay type: functional, organism-based
[13] = molecular target: CYP2D6 (Homo sapiens, UniProt P10635); test: Inhibition on CYP2D6 (unknown origin) at 1 uM; assay type: ADME
[14] = molecular target: T2, Histamine H2 receptor; test: Displacement of [125I]-aminopotentidine receptor from histamine H2 receptor (unknown origin)
[15] = molecular target: 5-hydroxytryptamine receptor 1A (Homo sapiens) (UniProt P08908); test: Displacement of [3H]-8-OH-DPAT from 5-HT1A receptor (unknown origin) at 1 uM
[16] = molecular target: Sigma non-opioid intracellular receptor 1 (Cavia porcellus, UniProt Q60492); test: Displacement of [3H]-pentazocine from sigma1 receptor in guinea pig brain membranes after 120 mins by liquid scintillation counting; assay type: cell membranes, Membrane
[17] = molecular target: Albumin (Homo sapiens, UniProt P02768); test: Binding affinity to human serum albumin at 60 uM; assay type: ADME; conditions: isolated protein
[18] = molecular target: Alpha-1A adrenergic receptor (Homo sapiens) (UniProt P35348); test: Displacement of [3H]-prazosin from adrenergic alpha1A receptor (unknown origin) at 1 uM
[19] = species on record: Homo sapiens; test: Displacement of [3H]-Idazoxan from imidazoline I2 receptor (unknown origin) at 1 uM
[20] = molecular target: Substance-P receptor (Homo sapiens) (UniProt P25103); test: Displacement of [3H]-SR-140333 from tachykinin NK1 receptor (unknown origin) at 1 uM
[21] = molecular target: D(1A) dopamine receptor (Homo sapiens) (UniProt P21728); test: Displacement of [3H]-SCH-23390 from dopamine D1 receptor (unknown origin) at 1 uM
Chain of D(1A) dopamine receptor (Homo sapiens) (P21728 whole entry): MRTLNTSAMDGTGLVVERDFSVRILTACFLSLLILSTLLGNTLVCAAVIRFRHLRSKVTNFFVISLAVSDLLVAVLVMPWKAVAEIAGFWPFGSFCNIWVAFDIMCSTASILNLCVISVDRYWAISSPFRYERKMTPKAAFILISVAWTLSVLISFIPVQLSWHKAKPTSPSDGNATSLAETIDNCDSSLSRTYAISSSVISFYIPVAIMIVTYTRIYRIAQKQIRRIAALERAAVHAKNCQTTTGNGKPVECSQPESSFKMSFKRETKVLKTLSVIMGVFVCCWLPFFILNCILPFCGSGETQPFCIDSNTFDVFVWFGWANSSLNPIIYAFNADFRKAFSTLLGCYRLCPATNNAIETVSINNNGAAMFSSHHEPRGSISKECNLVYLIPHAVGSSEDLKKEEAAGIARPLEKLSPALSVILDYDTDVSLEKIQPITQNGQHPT

[22] = molecular target: T1, Glutamate [NMDA] receptor (Homo sapiens); test: Displacement of [3H]-TCP from glutamate NMDA receptor phencyclidine binding site (unknown origin) at 1 uM
[23] = molecular target: Mu-type opioid receptor (Homo sapiens) (UniProt P35372); test: Displacement of [3H]-d iprenorphine from mu opioid receptor (unknown origin) at 1 uM
Chain of Mu-type opioid receptor (Homo sapiens) (P35372 whole entry): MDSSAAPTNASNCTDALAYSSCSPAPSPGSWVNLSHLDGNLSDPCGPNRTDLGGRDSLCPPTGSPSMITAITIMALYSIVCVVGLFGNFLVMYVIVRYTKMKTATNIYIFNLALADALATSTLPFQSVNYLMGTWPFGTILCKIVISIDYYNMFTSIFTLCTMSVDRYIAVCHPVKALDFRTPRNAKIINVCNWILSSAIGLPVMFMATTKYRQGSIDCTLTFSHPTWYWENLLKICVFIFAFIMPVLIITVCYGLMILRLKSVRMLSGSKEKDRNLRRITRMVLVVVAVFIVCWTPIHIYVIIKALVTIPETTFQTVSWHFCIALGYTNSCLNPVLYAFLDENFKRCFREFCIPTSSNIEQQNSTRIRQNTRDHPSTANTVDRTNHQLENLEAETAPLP

[24] = molecular target: Beta-1 adrenergic receptor (Homo sapiens) (UniProt P08588); test: Displacement of [125I]-cyanopindolol from adrenergic beta1 receptor (unknown origin) at 1 uM
[25] = molecular target: Histamine H1 receptor (Homo sapiens) (UniProt P35367); test: Displacement of [3H]-Pyrilamine from histamine H1 receptor (unknown origin) at 1 uM
Chain of Histamine H1 receptor (Homo sapiens) (P35367 whole entry): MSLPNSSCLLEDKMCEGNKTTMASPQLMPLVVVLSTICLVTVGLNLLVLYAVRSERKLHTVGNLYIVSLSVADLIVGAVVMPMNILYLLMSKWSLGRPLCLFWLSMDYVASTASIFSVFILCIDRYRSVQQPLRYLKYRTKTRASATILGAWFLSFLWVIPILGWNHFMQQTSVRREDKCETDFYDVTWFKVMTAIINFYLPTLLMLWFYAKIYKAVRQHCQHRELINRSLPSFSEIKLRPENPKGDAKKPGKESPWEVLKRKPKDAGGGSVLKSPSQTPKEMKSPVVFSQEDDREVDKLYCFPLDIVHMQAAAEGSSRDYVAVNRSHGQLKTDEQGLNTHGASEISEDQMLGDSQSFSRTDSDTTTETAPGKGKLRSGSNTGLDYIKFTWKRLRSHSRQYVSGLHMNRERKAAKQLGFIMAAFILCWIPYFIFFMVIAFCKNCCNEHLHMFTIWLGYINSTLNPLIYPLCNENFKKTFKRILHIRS

[26] = tested on: Mus musculus; test: Toxicity in mouse assessed as diarrhea at 100 mg/kg, ip by Irwin test; assay type: organism-based; conditions: in vivo
[27] = species on record: Homo sapiens; test: Displacement of [3H]-alpha-5-methylene-ATP from purinergic P2x receptor (unknown origin) at 1 uM
[28] = molecular target: Muscarinic acetylcholine receptor M3 (Homo sapiens) (UniProt P20309); test: Displacement of [3H]-N-methylscopolamine from muscarinic M3 receptor (unknown origin) at 1 uM
[29] = molecular target: Metabotropic glutamate receptor 5 (Homo sapiens) (UniProt P41594); test: Displacement of [3H]-quisqulic acid from metabotropic glutamate receptor 5 (unknown origin) at 1 uM
[30] = molecular target: Alpha-1B adrenergic receptor (Homo sapiens) (UniProt P35368); test: Displacement of [3H]-prazosin from adrenergic alpha1B receptor (unknown origin) at 1 uM
Chain of Alpha-1B adrenergic receptor (Homo sapiens) (P35368 whole entry): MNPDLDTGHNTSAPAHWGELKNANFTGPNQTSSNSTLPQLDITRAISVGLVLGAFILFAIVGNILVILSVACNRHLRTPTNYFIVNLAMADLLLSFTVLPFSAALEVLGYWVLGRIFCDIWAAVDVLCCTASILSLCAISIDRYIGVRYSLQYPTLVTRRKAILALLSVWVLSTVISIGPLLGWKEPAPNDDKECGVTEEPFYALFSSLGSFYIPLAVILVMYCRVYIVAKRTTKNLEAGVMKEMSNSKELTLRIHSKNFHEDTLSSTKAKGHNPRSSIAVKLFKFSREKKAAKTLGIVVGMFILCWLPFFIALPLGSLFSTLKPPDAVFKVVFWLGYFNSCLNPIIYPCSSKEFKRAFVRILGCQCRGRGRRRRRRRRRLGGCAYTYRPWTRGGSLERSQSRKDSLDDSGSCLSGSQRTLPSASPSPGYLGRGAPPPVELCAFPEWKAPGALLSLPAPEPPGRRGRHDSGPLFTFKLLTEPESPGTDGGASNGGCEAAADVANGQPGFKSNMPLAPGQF

[31] = Displacement of [3H]-(+)-MK 801 from PCP binding site of NMDA receptor in pig brain cortex membranes after 120 mins by liquid scintillation spectrometry; assay type: cell membranes, Sus scrofa
[32] = Metabolic stability in human microsomes assessed as amount of parent compound remaining after 5 mins; assay type: ADME, Microsome; conditions: read-out: Stability
[33] = species on record: Homo sapiens; test: Displacement of [35S]-ATP-alpha-S from purinergic P2y receptor (unknown origin) at 1 uM
[34] = molecular target: 5-hydroxytryptamine receptor 3A (Homo sapiens) (UniProt P46098); test: Displacement of [3H]-GR-65630 from 5-HT3 receptor (unknown origin) at 1 uM
[35] = molecular target: C-X-C chemokine receptor type 2 (Homo sapiens) (UniProt P25025); test: Displacement of [125I]-IL-8 from CXCR2 receptor (unknown origin) at 1 uM
[36] = molecular target: Delta-type opioid receptor (Homo sapiens) (UniProt P41143); test: Displacement of [3H]-naltrindole from delta opioid receptor (unknown origin) at 1 uM
Chain of Delta-type opioid receptor (Homo sapiens) (P41143 whole entry): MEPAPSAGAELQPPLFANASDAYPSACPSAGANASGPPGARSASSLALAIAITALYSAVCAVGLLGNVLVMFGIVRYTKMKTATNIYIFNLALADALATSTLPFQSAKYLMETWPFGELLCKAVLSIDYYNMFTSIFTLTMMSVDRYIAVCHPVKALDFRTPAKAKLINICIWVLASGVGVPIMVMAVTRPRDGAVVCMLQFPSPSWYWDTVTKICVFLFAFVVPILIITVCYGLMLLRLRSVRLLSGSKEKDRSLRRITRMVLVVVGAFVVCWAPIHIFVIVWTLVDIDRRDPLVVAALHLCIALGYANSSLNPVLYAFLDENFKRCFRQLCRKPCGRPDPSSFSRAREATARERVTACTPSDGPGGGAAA

[37] = molecular target: Estrogen receptor (Homo sapiens) (UniProt P03372); test: Displacement of [3H]-estradiol from estrogen ERalpha receptor (unknown origin) at 1 uM
[38] = molecular target: Endothelin-1 receptor (Homo sapiens) (UniProt P25101); test: Displacement of [125I]-endothelin-1 from endothelin ETA receptor (unknown origin) at 1 uM
Chain of Endothelin-1 receptor (Homo sapiens) (P25101 whole entry): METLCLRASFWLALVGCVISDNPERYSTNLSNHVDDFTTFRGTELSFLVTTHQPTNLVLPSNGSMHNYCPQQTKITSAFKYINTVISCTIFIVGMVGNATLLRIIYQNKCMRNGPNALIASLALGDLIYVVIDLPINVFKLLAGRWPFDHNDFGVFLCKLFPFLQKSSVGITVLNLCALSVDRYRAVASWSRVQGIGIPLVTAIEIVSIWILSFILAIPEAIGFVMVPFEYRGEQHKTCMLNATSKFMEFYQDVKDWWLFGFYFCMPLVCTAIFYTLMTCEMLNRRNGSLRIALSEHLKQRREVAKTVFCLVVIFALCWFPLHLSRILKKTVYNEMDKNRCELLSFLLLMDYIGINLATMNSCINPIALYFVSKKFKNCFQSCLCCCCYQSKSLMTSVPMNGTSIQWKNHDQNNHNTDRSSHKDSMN

[39] = molecular target: Endothelin receptor type B (Homo sapiens) (UniProt P24530); test: Displacement of [125I]-endothelin-1 from endothelin ETB receptor (unknown origin) at 1 uM
[40] = molecular target: Adenosine receptor A3 (Homo sapiens) (UniProt P0DMS8); test: Displacement of [125I]-AB-MECA from adenosine A3 receptor (unknown origin) at 1 uM
[41] = molecular target: Melanocortin receptor 3 (Homo sapiens) (UniProt P41968); test: Displacement of [125I]-NDP-alpha-MSH from melanocortin MC3 receptor (unknown origin) at 1 uM
Chain of Melanocortin receptor 3 (Homo sapiens) (P41968 whole entry): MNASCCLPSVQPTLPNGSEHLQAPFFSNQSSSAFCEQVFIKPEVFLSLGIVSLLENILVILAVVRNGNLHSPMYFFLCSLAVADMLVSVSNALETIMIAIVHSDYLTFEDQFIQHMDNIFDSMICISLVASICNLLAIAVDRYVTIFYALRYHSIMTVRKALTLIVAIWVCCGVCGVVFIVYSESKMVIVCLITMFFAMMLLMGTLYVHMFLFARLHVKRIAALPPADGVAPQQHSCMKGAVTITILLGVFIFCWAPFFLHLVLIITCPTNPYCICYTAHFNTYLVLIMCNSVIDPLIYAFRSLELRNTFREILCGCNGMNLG

COc1ccc(CN2CCCN(Cc3ccccc3)[C@@H](C)C2)cc1
inhibition [1]: inactive
inhibition [2]: inactive
inhibition [3]: inactive
inhibition [4]: inactive
Activity [5]: Toxic
inhibition [6]: inactive
inhibition [7]: inactive
inhibition [8]: inactive
inhibition [9]: inactive
inhibition [10]: inactive
inhibition [11]: 50%
Activity [12]: Active
inhibition at 1 µM [13]: 60%
pIC50 [14]: 6.00
inhibition [15]: inactive
pKi [16]: 9.07
PB [17]: 1.6%
inhibition [18]: inactive
inhibition [19]: inactive
inhibition [20]: inactive
inhibition [21]: inactive
inhibition [22]: inactive
inhibition [23]: inactive
inhibition [24]: inactive
inhibition [25]: inactive
Activity [26]: Toxic
inhibition [27]: inactive
inhibition [28]: inactive
inhibition [29]: inactive
inhibition [30]: inactive
pIC50 [31]: < 6.00
remaining at 5 min [32]: < 50%
inhibition [33]: inactive
inhibition [34]: inactive
inhibition [35]: inactive
inhibition [36]: inactive
inhibition [37]: inactive
inhibition [38]: inactive
inhibition [39]: inactive
inhibition [40]: inactive
inhibition [41]: inactive

Source: ChEMBL document CHEMBL4043136, “Chiral-pool synthesis of 1,2,4-trisubstituted 1,4-diazepanes as novel σ1 receptor ligands” (Bioorg Med Chem, 2017)
